In patent US10137166B2, “Compositions and methods for affecting movement of contaminants, bodily fluids or other entities, and/or affecting other physiological conditions” (Massachusetts Institute of Technology, priority 2006, dated 2018):

How the values were obtained:
[1] = test system: branch of the superior sagittal sinus in the brains of rats and hamsters; experiment: Transection of a branch of the superior sagittal sinus in the brain; hemostasis assessed visually from time-stamped video; format: in vivo
Protocol: Animals were anesthetized with an i.p. injection of ketamine (80 mg/kg) and xylazine (8 mg/kg). All surgical procedures were conducted under an operating microscope. Twenty-two animals, including 10 adult hamsters and 12 young adult female Spraque-Dawley rats (200-250 g), were treated with either iced saline or 20 μl of a 1% peptide solution at the site of the sinus branch transection. The material was prepared by dissolving RADA 16-1 (n-RADARADARADARADA-c; SEQ ID NO: 1) peptide in sterile water, and the peptide-containing solution was applied to the injured tissue with a 31 gauge needle attached to a 2 cc syringe.
The experiment was videotaped with a time stamp and was replayed one frame at a time to evaluate the length of time required for the peptide solution to form a gel, which effectively impeded bleeding. Hemostasis was assessed visually, and “complete hemostasis” was defined as the complete lack of movement of blood from the wound site.
Durations were measured from the start of application of peptide solution to the completion of hemostasis after transection of the veins leading to the sinus in the brains of adult rats. […] In the saline controls, cessation of bleeding was never achieved. The saline control experiment was terminated at the same time point in order to prevent the animals from bleeding to death.
A total of 22 rats and 64 hamsters have been subjected to experiments in which peptide-containing solutions effectively achieved hemostasis within 10 seconds following application to a site intracranial bleeding.

superior sagittal sinus = experiment: Complete transection of the superior sagittal sinus; hemostasis; format: in vivo; conditions: control animals still bleeding after 20 seconds
Description: A higher concentration of peptide (e.g., approximately 3%-4%) was used in the latter experiment in order to achieve hemostasis. The three saline control cases continued to bleed after 20 seconds.

muscle of the hind limb = experiment: Hind limb muscle wounds (porteocaudalis and musculus tibialis cranialis); hemostasis; format: in vivo
Description: However when an artery or vein was transected 2% or higher material was needed to bring about hemostasis. With the application of iced saline alone, control animals continued to bleed after 20 seconds.

femoral artery = experiment: Femoral artery transection; hemostasis; format: in vivo, adult rats
Protocol: The sciatic nerve and the adjacent femoral artery were exposed in adult rats, and the femoral artery was transected. Twelve rats were treated by application of 20 μl of a 1% solution of RADA 16-I peptide to the site of transection using a glass pipette attached to a syringe body, while controls were treated by applying cold saline to the site of transection. […] The saline control cases continued to bleed until the experiment was terminated at 110 seconds. […] A series of pictures was taken in an adult rat in which the femoral artery was transected. In the picture taken first, the sciatic nerve and the femoral artery are exposed. […] The assembled material can be suctioned off the site easily if desired.
In the saline controls, hemostasis was never reached.

skin wounds = experiment: 4 mm punch biopsy healing test of skin and subcutaneous tissue; format: in vivo; conditions: single application
Protocol: The regions from which the biopsies were taken were either treated by a single application of self-assembling peptide (RADA16-I) solution or were left untreated. The wounds were left unbandaged. A series of pictures of a 4 mm punch biopsy healing test in which injured animals were treated with the self assembling peptide and compared to matching cases with no treatment illustrates the results. The wounds were photographed on day 0, day 1, day 4, and day 7. […] Treatment with the peptide appeared to speed healing by as much as 5 days in some cases.

spinotrapezius muscles = experiment: Muscle trauma, deep cut in the spinotrapezius muscles on the back; hemostasis; format: in vivo, rat; conditions: 1% peptide solution applied in the cut
Description: The spinotrapezius muscles on the back of the rats were exposed and a deep cut was made in the muscle, after which 1% peptide solution (RADA16-I) was applied in the cut. Within 10 seconds, all bleeding had stopped. With the application of iced saline alone, control animals continued to bleed after 20 seconds.

[2] = test system: liver (lobus sinister lateralis); experiment: Liver, rostral to caudal cut of the lobus sinister lateralis (relatively low pressure vessel); hemostasis; format: in vivo, adult rat; conditions: 1% peptide solution, topically and in the cut
Description: Profuse bleeding ensued. A 1% peptide solution (RADA16-1) was applied to the cut and in its vicinity using a 27 gauge needle and 4 cc syringe. All bleeding stopped within 10 seconds. A series of pictures was obtained. […] After treating the site with 1% peptide solution (applied topically and in the cut), all bleeding stopped within 10 seconds. A clear area was observed between the two halves of the lobus sinister lateralis. This procedure was repeated several times with the same result.

[3] = test system: liver (lobus sinistras laterialis); experiment: Liver, removal of 1/4 of the lobe, topical treatment of the margin; hemostasis; format: in vivo
Protocol: In other experiments ¼ of the lobe in the lower right quadrant of the lobus sinistras laterialis was removed, and the margin was treated with a topical application of 2% peptide (RADA16-I) to the site of injury. Bleeding stopped in less than 10 seconds.

intestine (duodenum) = experiment: Perforated intestine at the level of the duodenum; leakage of gastric fluid; format: in vivo, adult rat
Protocol: An additional volume of 2% peptide solution was injected into the duodenum at the level of the injury. […] In the control cut at the level of the duodenum, the wall of the intestine inverted and gastric fluids continued to leak from the site of injury when left untreated.

[4] = test system: liver and a major branch of the portal vein; experiment: Liver, transverse cut transecting a major branch of the portal vein (higher pressure); hemostasis; format: in vivo
Protocol: A series of pictures illustrate the experiment. […] The cut was treated with 4% peptide solution applied topically and in the cut. All bleeding stopped within 10 seconds. […] Thus, application of 4% peptide solution brings about complete hemostasis in a high pressure bleeding environment in less than 10 seconds. […] This procedure was repeated several times with the same result.

[5] = control cut treated 15 minutes after the injury

Q: How did the “time to complete hemostasis after application of the peptide solution” value ([1]; 20 μl of a 1% peptide solution, rats and hamsters, all cases) turn out when n-RADARADARADARADA-c [RADA16-I] was run?
A: ≤ 10 s

Q: And the “hemostasis in picture series” value ([1]; adult rat, five seconds after the peptide solution was applied)?
A: Complete hemostasis was achieved

Q: And the “average duration from start of application to completion of hemostasis” value ([1]; adult rats, transection of the veins leading to the sinus)?
A: 8.3 s

Q: What about the “hemostasis after iced saline was removed and peptide solution applied” value (superior sagittal sinus) of the same substance?
A: complete hemostasis almost immediately

Q: And the “hemostasis in limb wounds” value (muscle of the hind limb; between 1% to 100% peptide)?
A: hemostasis was achieved in all cases

Q: What about the “material concentration needed to bring about hemostasis” value (muscle of the hind limb; when an artery or vein was transected) of the same substance?
A: ≥ 2%

Q: What about the time to hemostasis (femoral artery; 20 μl of a 1% solution, all treated cases) of the same substance?
A: less than 10 seconds

Q: And the “hemostasis in picture series” value (femoral artery; adult rat, after about five seconds)?
A: complete hemostasis was observed

Q: And the “hemostasis after replacement of cold saline with the peptide solution” value (femoral artery; control animals)?
A: almost immediate achievement of complete hemostasis

Q: What about the “time complete hemostasis was maintained” value (femoral artery; duration of the test) of the same substance?
A: ≥ 1 h

Q: What about the “wound healing versus untreated” value (skin wounds; contraction of the wound site as early as day 1) of the same substance?
A: healed much faster

Q: And the “speeding of healing versus no treatment” value (skin wounds; some cases)?
A: ≤ 5 days

Q: What about the “time until all bleeding had stopped” value (spinotrapezius muscles) of the same substance?
A: ≤ 10 s

Q: And the “time until all bleeding stopped” value [2]?
A: ≤ 10 s

Q: What about the “hemostasis at the margin after the peptide was removed” value ([3]; 2% peptide, removed one minute later) of the same substance?
A: complete hemostasis was achieved

Q: What about the “time until bleeding stopped” value ([3]; topical 2% peptide) of the same substance?
A: less than 10 seconds

Q: And the “leakage of gastric fluids after treatment of the site” value (intestine (duodenum); 2% peptide solution)?
A: all leakage of gastric fluids from the intestine stopped

Q: What about the “leakage after additional volume injected into the duodenum” value (intestine (duodenum); 2% peptide solution, duration of the procedure) of the same substance?
A: prevented all leakage from the intestine for one hour

Q: And the intestinal wall inversion (intestine (duodenum); [5])?
A: stopped the progression of the intestinal wall inversion

Q: And the “leakage when treated after the injury” value (intestine (duodenum); [5])?
A: stopped all leakage from this injury site

Q: What about the hemostasis ([4]; 1% solution) of the same substance?
A: partial cessation of bleeding

Q: What about the hemostasis ([4]; 2% or 3% peptide solution) of the same substance?
A: complete hemostasis was also achieved

Q: What about the “time until all bleeding stopped” value ([4]; 4% peptide solution, topically and in the cut) of the same substance?
A: ≤ 10 s

Q: What about the “bleeding at later time” value ([4]; 4% peptide solution, ten minutes later, after physical stress) of the same substance?
A: still no bleeding

Q: And the “hemostasis after excess peptide structure was wiped away” value ([4]; 30 seconds after treatment)?
A: hemostasis was maintained
